# Measured values reported in US6716829B2, “Aldosterone antagonist and cyclooxygenase-2 inhibitor combination therapy to prevent or treat inflammation-related cardiovascular disorders” (Pharmacia Corporation, priority 2000, dated 2004).
# Values joined by “and” are separate entries in the source; they are usually repeats but may differ in a detail not shown here. Equal entries are not always repeated.
# How the values were obtained:
# Collagen I = assay: Assay C: Collagen I mRNA by TaqMan RT-PCR; type: in vivo, Male Sprague-Dawley rats; conditions: for Collagen type-I message: at 30 days, compared to vehicle + salt controls; for Collagen-I (AU): collagen type I mRNA relative to cyclophilin, eplerenone dose 100 mg/kg/day
# Protocol: The procedure of Assay B was expanded upon in a further study. […] Myocardial tissue from animals in each treatment group was examined after 7, 14, or 30 days of treatment.
# Potassium chloride supplementation was added to the saline solution in order to prevent the potential hypokalemia associated with aldosterone excess.
# At the time of the surgery, an Alzet 2002 osmotic minipump (Alza Corp., Palo Alto, Calif.) containing either vehicle (9% ethanol/87% propylene glycol/4% dH2O) or 1.0 mg/mL d-aldosterone (Sigma Chemical, St. Louis, Mo.) was inserted subcutaneously at the nape of the neck. Aldosterone was administered at a dose of 0.75 µg/hour. […] Animals were sacrificed from each group (n=8-13) after 7, 14, or 30 days of treatment.
# The fluorogenic 5′-nuclease assay (TaqMan PCR) using Applied Biosystems' 7700 Sequence Detection System (Applied Biosystems, Foster City, Calif.) allowed for real time detection/quantitation of a specific gene by monitoring the increase in fluorescence of a gene-specific, dye-labeled oligonucleotide probe. Probes for target and reference genes were labeled at the 5′-end with a 6-carboxyfluorescein (6FAM) reporter dye and at the 3′-end with a 6-carboxy-N,N,N′,N′-tetramethylrhodamine (TAMRA) quencher dye. When the probe was annealed to the target gene, fluorescence of 6FAM was prevented by the close proximity of TAMRA. The exonuclease activity of Taq polymerase released the dyes from the oligonucleotide probe by displacing the probe from the target sequence resulting in fluorescence excitation in direct proportion to the amount of target message present. Data analysis was performed using the Sequence Detection System software from Applied Biosystems.
# Primers and probes were designed using Oligo Primer Analysis Software, Version 5.0 (National Biosciences Inc. (NBI)-Wojciech Rychlik, Cascade, Colo.). Primers were synthesized by Life Technologies (Grand Island, N.Y.) and probes were synthesized by Applied Biosystems. Primer/probe sets were designed from known sequences of rat genes to be analyzed. All target gene values were normalized to a reference gene, constitutively expressed cyclophilin. Primer/probe sets sequences can be found in Table 8
# RNA was extracted from frozen (−70° C.) left ventricle (LV) tissue (approximately 10-20 mg) using 1.5 mL RNA-STAT 60 according to manufacturer's instructions (Leedo Medical Laboratories, Inc., Houston, Tex.). Briefly, tissues were homogenized using a tissue homogenizer equipped with a 5 mm probe (Ultra-Turrax T8 Homogenizer, IKA Works, Inc. Wilmington, N.C.). Following homogenization, an equal volume of molecular grade chloroform (Sigma Chemical Co., St. Louis, Mo.) was incubated with periodic mixing for 10 min at room temperature. Samples were centrifuged at 12,000 g for 10 min and RNA was precipitated from the top layer by adding an equal volume of molecular grade isopropanol (Sigma Chemical Co.) followed by an overnight incubation at −80° C. RNA was pelleted by centrifugation at 12,000 g, washed with 75% ethanol, and solubilized in nuclease-free water (Promega, Madison, Wis.).
# Double-stranded cDNA was synthesized by adding 400 ng RNA (4 uL) to a final volume of 20 uL containing 15% nuclease-free water (Promega, Madison, Wis.), 1×RT Buffer (Life Technologies, Grand Island, N.Y.), 10 mM DTT (Life Technologies), 0.5 mM each of dATP, dTTP, dGTP, dCTP (PE Biosystems, Foster City, Calif.), 2.5 μM Oligo d(T)15 (Oligo Therapeutics, Inc., Wilsonville, Oreg.), 40 units RNAsin (Promega), and 200 units SuperScript II Reverse Transcriptase (Life Technologies). The reactions were performed in thin-walled reaction tubes with caps (Applied Biosystems) to ensure accurate reaction temperatures.
# interstitial collagen = assay: Assay C: image analysis of interstitial collagen (Picrosirius Red), collagen volume fraction; type: in vivo, Male Sprague-Dawley rats; conditions: for ICVF (%): interstitial collagen volume fraction, eplerenone dose 100 mg/kg/day
# Protocol: The procedure of Assay B was expanded upon in a further study. […] Myocardial tissue from animals in each treatment group was examined after 7, 14, or 30 days of treatment. […] Lesions were preceded by the expression and progressive upregulation of proinflammatory molecules. […] Prior to surgery the animals were individually weighed and placed in one of the following groups: […] Potassium chloride supplementation was added to the saline solution in order to prevent the potential hypokalemia associated with aldosterone excess. […] Louis, Mo.) was inserted subcutaneously at the nape of the neck. Aldosterone was administered at a dose of 0.75 µg/hour. […] Animals were sacrificed from each group (n=8-13) after 7, 14, or 30 days of treatment. The equatorial regions of the heart were routinely processed into paraffin with an automated tissue processor (Hypercenter XP, Shandon/Lipshaw Inc., Pittsburgh, Pa.) and embedded into fresh paraffin apical side down (Shandon Embedding Center, Shandon/Lipshaw Inc.). Five and 10 µm sections were cut from each block of tissue using a Leica RM2035 rotary microtome (Leica Inc., Houston, Tex.) and mounted on Superfrost/Plus microscope slides (Fisher Scientific, Pittsburgh, Pa.). Ten […]m sections were stained with the collagen specific stain, Picrosirius Red F3BA (Saturated Picric Acid (Sigma Chemical, St. […] Waterbury, Conn.) (6). Mounted tissues were hydrated with water. […] Slides were coverslipped with #1 cover glass using Permount Histological Mounting Media (Fisher Scientific). Two slides mounted with 5 µm sections were cut for each animal. One slide was processed for H&E staining and one for Periodic Acid Schiff (PAS) staining. The H&E and PAS were used for pathological scoring of the hearts. Picrosirius Red F3BA stained slides were used to quantify interstitial collagen with a Videometric 150 Image Analysis System (Oncor Inc., Gaitherburg, Md.). […] Garden City, N.Y.) attached to a Nikon Optiphot microscope (Nikon Inc.). A Toshiba 3 CCD Color Video Camera (Model#[…] Corp. Japan) relayed the images in RGB format from the microscope to a 386 computer with a […] video board. The […] video board/[…] software application (Oncor Inc.) converted RGB images to HIS (Hue, Intensity, Saturation) format for display and analysis on a Sony Trinitron Color Video Monitor (Model#PVM-1342Q, Sony Corp, Tokyo, Japan) at a magnification of 305×. […] The […] application then measured only pixels which fell into thresholding limits. The system was calibrated with a micrometer scale (EM Sciences, FT. Washington, Pa. 19034), which allowed data to be expressed in mm^2 or […]m^2.
# [1] = mean ± SEM after 7 days of treatment
# [2] = mean ± SEM after 14 days of treatment
# [3] = mean ± SEM after 30 days of treatment
# [4] = group mean, data used for Table 15 (14 days of treatment)
# [5] = group mean, data used for Table 16 (30 days of treatment)
# [6] = individual rats, data used for Table 15 (14 days of treatment), incl. rat marked * excluded from statistics, listed as Aldosterone + salt
# [7] = individual rats, data used for Table 16 (30 days of treatment), incl. rat marked * excluded from statistics, listed as Aldosterone + salt
# [8] = individual rats, data used for Table 15 (14 days of treatment), incl. rat marked * excluded from statistics, listed as Eplerenone + aldosterone + salt
# [9] = individual rats, data used for Table 16 (30 days of treatment), incl. rat marked * excluded from statistics, listed as Eplerenone + aldosterone + salt
Structure (SMILES),Collagen type-I message (Collagen I),Collagen-I (AU) (Collagen I; [1]),Collagen-I (AU) (Collagen I; [2]),Collagen-I (AU) (Collagen I; [3]),Collagen-I mRNA (AU) (Collagen I; [4]),Collagen-I mRNA (AU) (Collagen I; [5]),Collagen-I mRNA (AU) (Collagen I; [6]),Collagen-I mRNA (AU) (Collagen I; [7]),Collagen Volume Fraction (%) (interstitial collagen; [4]),Collagen Volume Fraction (%) (interstitial collagen; [5]),Collagen Volume Fraction (%) (interstitial collagen; [6]),Collagen Volume Fraction (%) (interstitial collagen; [7]),ICVF (%) (interstitial collagen; [1]),ICVF (%) (interstitial collagen; [2]),ICVF (%) (interstitial collagen; [3]),Collagen-I mRNA (AU) (Collagen I; [8]),Collagen-I mRNA (AU) (Collagen I; [9]),Collagen Volume Fraction (%) (interstitial collagen; [8]),Collagen Volume Fraction (%) (interstitial collagen; [9])
C[C@]12CCC(=O)C=C1CC[C@@H]1[C@@H]2[C@@H](O)C[C@]2(C=O)[C@@H](C(=O)CO)CC[C@@H]12 [Aldosterone],modest increase,1.36 ± 0.14,1.33 ± 0.24,2.29 ± 0.47,1.33,2.29,1.15 AU and 2.31 AU and 0.25 AU and 1.89 AU and 2.03 AU and 1.00 AU and 1.20 AU and 1.70 AU and 0.43 AU and 2.69 AU,2.20 AU and 2.02 AU (2×) and 5.88 AU and 1.05 AU and 1.32 AU and 1.98 AU and 1.63 AU and 2.54 AU,5.1,7.9,4.4% and 5.4% and 3.2% (2×) and 5.9% (2×) and 4.6% (2×) and 3.9% and 4.8% and 3.4% and 6.4% and 9.0%,6.6% and 8.8% and 7.2% (2×) and 7.1% and 9.3% and 6.8% and 4.0% and 14.5%,5.6 ± 0.6,5.1 ±0.5,7.9 ± 1.0,–,–,–,–
COC(=O)[C@@H]1CC2=CC(=O)CC[C@]2(C)[C@@]23O[C@@H]2C[C@@]2(C)[C@@H](CC[C@@]24CCC(=O)O4)[C@H]13 [Eplerenone],modest increase,0.85 ± 0.15,1.39 ± 0.21,2.53 ± 0.20,1.39,2.53,–,–,4.5,6.2,–,–,5.4 ± 0.6,4.5 ± 0.3,6.2 ± 0.5,0.86 AU (2×) and 0.90 AU and 1.65 AU and 1.14 AU and 1.44 AU and 0.50 AU and 1.24 AU and 1.69 AU and 2.03 AU and 3.02 AU,1.89 AU and 1.54 AU and 2.65 AU (2×) and 1.97 AU and 2.98 AU and 2.90 AU and 2.88 AU and 3.35 AU and 2.01 AU,4.1% and 6.2% and 3.9% and 3.7% (2×) and 4.2% and 3.5% and 3.3% and 5.2% and 5.6% and 6.0%,3.4% and 5.0% and 6.5% and 7.9% and 7.1% and 6.3% and 6.1% and 5.4% and 7.8% and 4.4%
